According to patent US20090281025A1, “INHIBITION OF TUMOR GROWTH AND METASTASIS BY ATF2-DERIVED PEPTIDES” (Mount Sinai School Of Medicine of New York University, priority 2004, published 2009):
“Also recorded” adds a separate entry of the source.

Key:
SW-1 cells = test: Caspase and PARP cleavage immunoblot in SW-1 cells; assay type: cell-based, mouse; conditions: peptides by transfection, UCN-01 (5 μm) 24 hours
Experimental: (§1) Human melanoma cells LU1205 were transfected with the nucleic acid molecules that encode either ATF2^51-100 peptide or ATF2^51-60 peptide. Twenty-four hours after transfection, cells were treated with of UCN-01 (5 μm) for 24 hours. Immunoblotting analysis was performed using caspase 9 and PARP antibodies, and β-actin was used as a loading control (FIG. 6A). The same experiment was performed in SW-1 cells (FIG. 6B). Stars point to the position of the uncleaved form whereas arrows point to the cleaved products.
(§2) Effect on Apoptosis. Assessed next was the degree of apoptosis in SW1 cells under normal growth (spontaneous) as well as following treatment with chemotherapeutic drugs. Cells were analyzed to detect spontaneous (basal) or induced apoptosis [following treatment with the kinase inhibitor UCN-01 (kindly provided by NCI repository) for 36 hours]. Apoptosis was measured by using FACS (Ivanov et al., Mol. Cell, 2001, 7:517-28) to quantify the percentage of hypodiploid nuclei undergoing DNA fragmentation. Nucleation as a marker of apoptosis was monitored via DAPI staining of cells at indicated time points after their treatment. Caspase activity was monitored by immunoblots using antibodies to caspase 9 (Santa Cruz). PARP cleavage was monitored by corresponding antibodies (PharMingen).

[1] = test system: Human melanoma cells LU1205; test: Caspase and PARP cleavage immunoblot in LU1205 cells; assay type: cell-based; conditions: peptides by transfection, UCN-01 (5 μm) 24 hours
Experimental: as §1, §2

SW1 cells = test: Tumor growth of SW1 cells constitutively expressing ATF2 peptides, injected subcutaneously; assay type: in vivo, mouse; conditions: constitutive expression, 18 days
Experimental: SW1 cells, which constitutively express the peptides indicated in FIG. 4A, were analyzed to detect expression of ATF2 peptides at the RNA level using RT-PCR. The indicated MW bands reflect the expected size product. SW1 cells (10^6) were injected subcutaneously into […] mice and tumor growth was monitored for 18 days, at which point tumors were removed and their size carefully assessed (FIG. 4B). Each group included 6 animals and each experiment was performed twice (P<0.01; T-test).
Inhibition of Tumor Growth. To examine the importance of the JNK association domain on ATF2, the possible role of a smaller peptide containing an intact JNK binding site (i.e., amino acids M^51T^52 of ATF2) was examined. To this end, three peptides of differing sizes (amino acids 51-80, 51-70, and 51-60) were compared to ATF2^51-100 peptide in their ability to inhibit tumor growth of SW1 cells in vivo. RT-PCR reactions confirmed the expression of these peptides' transcripts in the SW1 cells (FIG. 4A). […] However, expression of the 50aa peptide in these cells (constitutive expression based on selection of drug-resistant cells) decreased tumor size to 300 mm^3. Strikingly, constitutive expression of each of the 3 shorter peptides also elicited inhibition of melanoma growth that varied from 400-600 mm^3 (FIG. 4B). […] Further evaluation was performed on this 10 amino acid peptide.

TRE-Luc = TRE-Luc luciferase reporter assay in SW1 cells; assay type: cell-based, mouse; conditions: SW1 cells expressing peptide, luciferase after 18 hours
Experimental: (§3) SW1 cells constitutively expressing the indicated ATF2 peptides were transfected with either TRE-Luc (FIG. 5A) or with Jun2-Luc (FIG. 5B), and proteins were prepared for analysis of luciferase activity after 18 hours. Analysis was performed in duplicate, and the data reflect three independent experiments. SW1 cells expressing the ATF2 peptides were analyzed to establish the degree of spontaneous (basal) apoptosis as well as apoptosis 24 hours following treatment with the chemotherapeutic drug UCN-01 (FIG. 5C). The data represent triplicate analysis reproduced three times.
(§4) Alteration of ATF2 Transcriptional Activity. Assessed next was whether the short peptide caused any change in transcriptional activity mediated by ATF2 and its heterodimeric partners, using the TRE and Jun2 promoter sequences linked to the Luciferase marker gene. These reporter constructs (0.3 μg) were cotransfected with the respective expression vectors into melanoma cells (5×10^5) using Lipofectamine (Invitrogen). Luciferase activity was measured using the Luciferase assay system (Promega).

SW1 melanoma cells = test: Apoptosis of SW1 cells by FACS (hypodiploid nuclei); assay type: cell-based, mouse; conditions: SW1 cells expressing peptide, treated with UCN-01; given as control-to-peptide increase
Experimental: as §3, §2

JNK-ATF2 association = biological target: T1, JNK-ATF2 association (Homo sapiens, UniProt P45984); test: In vitro association of bead-bound JNK with ATF2; assay type: binding; conditions: 35S-labeled in vitro translated ATF2, synthetic peptide
T1 construct: made in house; host or cells: JNK2 from transfected 293T cells; ATF2 from the TNT-coupled reticulocyte lysate system (Promega)
Experimental: (§5) HA-JNK was transfected into 293T cells and 24 h later JNK was immunoprecipitated and bound to protein G beads. Bead-bound JNK was incubated with in vitro-translated c-Jun or ATF2 in the absence or presence of the wt or mutant form of ATF2^51-60. Following incubation bead-bound JNK was washed (see Example 4) and the amount of bound Jun or ATF2 was assessed via SDS-PAGE analysis subjected to autoradiography (Panel A) and quantification with the aid of a phosphor imager (Panels B and C).
(§6) Effect on JNK/Jun Association. The short peptide's ability to elicit major changes in TRE-dependent transcription and spontaneous apoptosis led to an assessment of possible changes in the JNK-Jun association. Flag JNK2 expressed in 293T cells extracted, immunopurified with anti-Flag antibody bound to Protein G agarose beads were first incubated with 3 mg/ml of BSA in phosphate-buffered saline for 2 h, followed by incubation at 4° C. for 2 h with ^35S-labeled in vitro translated c-Jun or ATF2 (TNT-coupled reticulocyte lysate system, Promega) in the presence of WT or mutant peptide. Bead-bound material was subjected to three washes with 20 mM Tris [pH 7.5], 150 mM NaCl, 1 mM EDTA, 1 mM EGTA, 0.5% NP-40, 1 mM NaVO4, and 1 mM DTT supplemented with protease inhibitors. […] Binding was detected by autoradiography and quantified with the aid of a phosphorimager. […]

JNK-c-Jun association = biological target: T2, JNK-c-Jun association (Homo sapiens, UniProt P45984); test: In vitro association of bead-bound JNK with c-Jun; assay type: binding; conditions: 35S-labeled in vitro translated c-Jun, synthetic peptide
T2 construct: made in house; host or cells: JNK2 from transfected 293T cells; c-Jun from the TNT-coupled reticulocyte lysate system (Promega)
Experimental: as §5, §6

Jun2-Luc = Jun2-Luc luciferase reporter assay in SW1 cells; assay type: cell-based, mouse; conditions: SW1 cells expressing peptide, luciferase after 18 hours
Experimental: as §3, §4

Compound	PARP cleavage (SW-1 cells)	activation of caspase 9 (cleavage fragments) (SW-1 cells)	PARP cleavage [1]	activation of caspase 9 (cleavage fragments) [1]	inhibition of SW1 melanoma growth in vivo (SW1 cells)	inhibition of SW1 melanoma growth in vivo (SW1 cells; listed as 51-60)	TRE-Luc activity (TRE-Luc)	UCN-01-induced apoptosis (SW1 melanoma cells)	JNK-ATF2 association (JNK-ATF2 association)	association between JNK and c-Jun (JNK-c-Jun association)	Jun2-Luc transcriptional activity (Jun2-Luc)	Jun2-Luc transcriptional activity (Jun2-Luc; listed as 51-60 amino acid peptide)
CN[C@@H]1C[C@H]2O[C@@](C)([C@@H]1OC)n1c3ccccc3c3c4c(c5c6ccccc6n2c5c31)C(=O)N[C@@H]4O [UCN-01, reference compound]	PARP cleavage was observed	caused activation of caspase 9	PARP cleavage was observed	caused activation of caspase 9								
ATF2^51-70: ATF2 peptide from amino acid residue 51 to 70 (about a 20 amino acid peptide) (MTLKFGPARNDSVIVADQTP; UniProt P15336 51-70, looked up, fragment)					efficient inhibition close to that observed with the 50 amino acid peptide							
ATF2^51-60: ATF2 peptide from amino acid residue 51 to 60 (about a 10 amino acid peptide); expressed in cells or synthesized (MTLKFGPARN; UniProt P15336 51-60, looked up, fragment)		activation of caspase 9 even prior to treatment with UCN-01		activation of caspase 9 even prior to treatment with UCN-01	inhibits melanoma growth in vivo	efficient inhibition close to that observed with the 50 amino acid peptide	efficient in increasing TRE-Luc activities; also recorded: increases TRE-Luc activity	20-40%	not observed	increases the in vitro association between JNK and c-Jun in a dose-dependent manner; also recorded: increases Jun association with JNK	does not significantly affect Jun2-Luc activity	no longer inhibited and slightly elevated
